The values that follow come from US5912237A, “Method of synthesis of desulfated heparin and use thereof for inhibition of elastase and cathespin” (Carolinas HealthCare System, priority 1997, dated 1999).

The test system of data set [1] is human polymorphonuclear leucocyte elastase (HLE). The settings on record: cited from earlier work.
A further data set deals with cathepsin G. The experiment in a line: Inhibition of cathepsin G, substrate Suc-Ala-Ala-Pro-Phe-pNA. It is filed as biochemical. The following applies: for Inhibition of cathepsin G, in words: I:E ratios of greater than 0.4. How it is done:
(§1) The inhibition of HLE by 2-O-desulfated heparin of Example III was measured by incubating a constant amount of HLE (100 pmol) with increasing amounts of 2-O-desulfated heparin ([…]) for 30 minutes at 25° C. in 500 microliters of Hepes buffer (0.125 M, 0.125% Triton-X-100, pH 7.5) diluted to the final volume of 900 microliters. The remaining enzyme activity was measured by adding 100 microliters of 3 mM N-Suc-Ala-Ala-Val-NA (Sigma Chemicals, St. Louis, Mo., made in dimethylsulfoxide [DMSO]) and reading the absorbance of the proteolytically released chromogen 4-Nitroaniline at 405 nm. The percentage of inhibition was calculated based on enzyme activity without inhibitor.
The inhibition of cathepsin G by 2-O-desulfated heparin of Example III was measured as described above, except that the substrate was 3 mM Suc-Ala-Ala-Pro-Phe-pNA (Sigma Chemical, in DMSO).

Data set [2] deals with blood coagulation. The settings on record: Rej et al. and Jaseja et al.; cited from earlier work.
The test system of data set [3] is human leukocyte elastase (HLE). Kind of data set: HLE degradation of 3H-elastin. The settings on record: substrate 3H-Elastin. Type of data set: biochemical. The protocol:
Also, bovine ligament elastin was prepared according to B. C. Starcher, Anal. Biochem. (1976) 74:441-447. The elastin was assessed for purity by amino acid analysis. Its degradation was assayed using elastin radiolabeled with ^3 H-NaBH4, following the methods described in P. J. Stone, et al., Methods Enzymol. (1982) 82:588-605. The tritiated powdered elastin was homogenized and washed in phosphate buffered saline (PBS), pH 7.4 just before use to remove unincorporated radioactivity. A constant amount of human leukocyte elastase (HLE) (67 pmol) was pre-incubated with increasing amounts of 2-O-desulfated heparin (6.7-134 pmol) at 37° C. for 30 minutes in a final volume of 1.0 ml Hepes buffer (0.125 M, 0.125% Triton-X-100, pH 7.5). An aliquot of 900 microliters of each reaction mixture was incubated with 5 mg ^3 H-elastin and 100 microliters of 0.9% saline at 37° C. Solubilized peptides were separated from the elastin suspension by filtration through medium-porosity filter paper. The rate of degradation was determined by quantifying the solubilized ^3 H peptides.

Data set [4] relates to human leukocyte elastase (HLE)-mediated lung injury. Kind of data set: HLE-mediated lung injury in hamsters, bronchoalveolar lavage. Type of data set: in vivo, golden Syrian hamsters. The following applies: hamster; for PMN in bronchoalveolar lavage fluid / Protein in bronchoalveolar lavage fluid / Total Hemoglobin in bronchoalveolar lavage fluid: intratracheal 500 μg followed by HLE 100 μg, 24 hours. The protocol:
The ability of desulfated heparin to prevent human leukocyte elastase (HLE)-mediated lung injury was assessed in female golden Syrian hamsters (Harlan Industries, Indianapolis, Ind.) weighing 90 to 110 g. Phenobarbital-anesthetized hamsters were injected intratracheally with 0.25 ml sterile 0.9% saline (NS), 0.25 ml NS containing HLE (100 μg), or 0.25 ml NS containing 500 μg of heparin (Sigma) or 2-O-desulfated heparin according to Example III followed by 0.25 ml NS with HLE. Animals were killed by exsanguination 24 hours after treatment. The throat was opened and lungs dissected en bloc. The trachea was cannulated with polyethylene tubing and lavaged with five sequential aliquots of 3 ml NS. Lavage fluid was centrifuged at 200 Xg for 10 minutes. The resulting cell pellet was re-suspended in 1 ml Hank's balanced salt solution (HBSS) for performing cell count and differentials. The supernatant was assayed for protein and hemoglobin, as indices of acute injury.

The next data set deals with rats. The settings on record: rat, in vivo, 10 mg/kg.
Another data set deals with human test serum. The experiment in a line: Activated partial thromboplastin time in vitro. Type of data set: biochemical. The settings on record: for Time to Clot Formation: control 35-45. How it is done: The anti-coagulant potential of the desulfated heparin from Example III was studied by determining its effect on the activated partial thromboplastin time (APPT) in vitro. The test was performed in the usual fashion used to monitor the anti-coagulant effect of heparin clinically in patients. The test used 0.1 and 1.0 mg/ml heparin or heparin, 2-O-desulfated according to Example III, added to human test serum in vitro.

Data set [5] concerns factor Xa. Kind of data set: Anti-factor Xa activity, plasma treated with Russell viper venom. Type of data set: biochemical. The settings on record: for Anti-factor Xa Activity (test time): control plasma 35 sec. The protocol:
The 2-O-desulfated heparin from Example III was also studied to determine whether plasma dilutions of 0.1 mg/ml heparin or heparin, desulfated according to Example III, inhibited factor Xa, prolonging test time in an assay for Xa activity utilizing plasma treated with Russell viper venom.

Data set [6] relates to human leukocyte elastase (HLE). The experiment in a line: Inhibition of HLE, chromogenic substrate N-Suc-Ala-Ala-Val-NA. The following applies: for Percent inhibition of HLE: substrate N-Suc-Ala-Ala-Val-NA. It is filed as biochemical. The protocol: The inhibition of HLE by partially N-desulfated heparin of Example I was measured by incubating a constant amount of HLE (100 pmol) with increasing amounts of partially N-desulfated heparin (10-50 pmol, I:E ratio 0.1-0.5) for 30 minutes at 25° C. in 500 microliters of Hepes buffer (0.125 M, 0.125% Triton-X-100, pH 7.5) diluted to the final volume of 900 microliters. The remaining enzyme activity was measured by adding 100 microliters of 3 mM N-Suc-Ala-Ala-Val-NA (Sigma Chemicals, St. Louis, Mo., made in dimethylsulfoxide [DMSO]) and reading the absorbance of the proteolytically released chromogen 4-Nitroaniline at 405 nm. The percentage of inhibition was calculated based on enzyme activity without inhibitor.
as §1

Data set [7] has as its system blood coagulation. The experiment in a line: USP anticoagulant activity. The source says:
(§2) Heparin modifications HM0500393 through HM0505293 were made from the same lot of porcine intestinal mucosal sodium heparin having 173.0 units/mg USP anticoagulant activity (USP method) and approximately 150 units/mg anti-Xa activity (by amidolytic assay using commercially available chromogenic peptide substrate). Preparation of modifications began with dissolution of 50 to 100 gm heparin to 5-10% concentration in deionized water, followed by addition of sodium borohydride.

For data set [8], the system named is factor Xa. The experiment in a line: Anti-Xa activity, amidolytic assay with chromogenic peptide substrate. It is filed as biochemical.
Excerpt: as §2

Where [9] appears, read: Conc. 0.1 mg/ml in human test serum.
The mark [10] stands for this setting: Conc. 1.0 mg/ml in human test serum.
Setting [11] is: plasma dilution 1:2 of 0.1 mg/ml.
Where [12] appears, read: plasma dilution 1:10 of 0.1 mg/ml.
Setting [13] is: plasma dilution 1:100 of 0.1 mg/ml.
Where [14] appears, read: plasma dilution 1:1000 of 0.1 mg/ml.

“And” between values parts separate entries of the source, which are not always exact repeats. Equal values may be shown once. “Also recorded” adds a separate entry of the source.

Consider dextran [non-sulfated dextran], for which the “Inhibition of elastase, in words” value in data set [1] is recorded as “is not”.

As to 2-O-desulfated heparin [ODH], the “Percent inhibition of Cathepsin G” value in the data set on cathepsin G (I:E ratio 0.1:1) was determined as 14%; with cathepsin G (I:E ratio 0.2:1), 54%; in the data set with cathepsin G (I:E ratio 0.4:1), 56%; in the data set on cathepsin G (I:E ratio 0.8:1), 69%; with cathepsin G (I:E ratio 1.0:1) it was 69%; in the data set on cathepsin G (I:E ratio 2.0:1), 67%. The “Inhibition of cathepsin G, in words” value in the data set with cathepsin G was “significant inhibition of cathepsin G”. The “Anticoagulant activity, in words” value with blood coagulation [2] is listed as “minimal anticoagulant activity”. The “Percent inhibition of HLE” value in [3] (I:E ratio 0.1:1) came to 73%; in [3] (I:E ratio 0.2:1) it was 77%; in data set [3] (I:E ratio 0.4:1), 72%; in [3] (I:E ratio 0.5:1), 85%; in data set [3] (I:E ratio 1.0:1), 85%; in [3] (I:E ratio 2.0:1), 84%. The “Percent inhibition of HLE” value in [6] (I:E ratio 0.1:1) came to 20%; in [6] (I:E ratio 0.2:1) it was 74%; in data set [6] (I:E ratio 0.3:1) it was 84%; in data set [6] (I:E ratio 0.4:1), 85%; in data set [6] (I:E ratio 0.5:1), 84%; in data set [6] (I:E ratio 0.6:1), 100%. Also, the “Inhibition of elastase induced injury in vivo, in words” value in data set [4] is on record as “potent inhibitors of elastase induced injury in vivo”. Also, the “PMN in bronchoalveolar lavage fluid” value in data set [4] was 9.83 ×10^6 Cells. Besides, the “Protein in bronchoalveolar lavage fluid” value in data set [4] came out at 65.80 mg/mL. Moreover, the “Total Hemoglobin in bronchoalveolar lavage fluid” value in data set [4] is listed as 1.5 mg. For the same substance, in the data set on rats, the Alveolar hemorrhage result is on record as “produced no alveolar hemorrhage”. For the same substance, the “Ability to prolong the APTT, in words” value with human test serum is recorded as “little ability to prolong the APTT”. For the same substance, the “Time to Clot Formation” value in the data set on human test serum (setting [9]) was 38 s; in the data set with human test serum (setting [10]), 42 s. Besides, the “Antifactor Xa activity, in words” value in the data set on factor Xa [5] is on record as “little antifactor XA activity”. The “Anti-factor Xa Activity (test time)” value was 42 s with factor Xa [5] (setting [11]), 33 s in the data set on factor Xa [5] (setting [12]), 32 s in the data set with factor Xa [5] (setting [13]) and 32 s in the data set with factor Xa [5] (setting [14]). Besides, in data set [6], the “HLE inhibitory activity, in words” value is “significant inhibition of human leukocyte elastase”.

With dextran sulfate, in [1], the “Inhibition of elastase, in words” value is listed as “potent inhibitor of elastase”.

Consider heparin, for which the “Percent inhibition of Cathepsin G” value in the data set with cathepsin G (I:E ratio 0.1:1) is given as 31%; in the data set on cathepsin G (I:E ratio 0.2:1) it was 49%; in the data set with cathepsin G (I:E ratio 0.4:1) it was 67%; with cathepsin G (I:E ratio 0.8:1) it was 78%; in the data set with cathepsin G (I:E ratio 1.0:1), 76%; in the data set on cathepsin G (I:E ratio 2.0:1) it was 76%. The “Inhibition of cathepsin G, in words” value in the data set with cathepsin G was “significant inhibition of cathepsin G”. In addition, the “USP Activity (anti-coagulant activity)” value in the data set with blood coagulation [7] (Table VII) is given as 173.0 u/mg. For the same substance, the USP anticoagulant activity with blood coagulation [7] (listed as porcine intestinal mucosal sodium heparin) turned out to be 173.0 units/mg; with blood coagulation [7] (listed as starting heparin) it was 170 units/mg. The “Percent inhibition of HLE” value was 72% in data set [3] (I:E ratio 0.1:1); 95% in data set [3] (I:E ratio 0.2:1); 92% in [3] (I:E ratio 0.4:1); 94% in data set [3] (I:E ratio 0.5:1); 97% in [3] (I:E ratio 1.0:1); 97% in data set [3] (I:E ratio 2.0:1). Moreover, the “Percent inhibition of HLE” value was 72% and 51.000% in data set [6] (I:E ratio 0.2:1); 81% and 79% in [6] (I:E ratio 0.2:1, listed as H); 83% and 91.000% in [6] (I:E ratio 0.3:1); 88% in [6] (I:E ratio 0.3:1, listed as H); 88% in data set [6] (I:E ratio 0.4:1); 87% and 90% in data set [6] (I:E ratio 0.4:1, listed as H). Moreover, the “Percent inhibition of HLE” value is 93% and 97.000% in data set [6] (I:E ratio 0.5:1); 87% and 91% in [6] (I:E ratio 0.5:1, listed as H); 99% in [6] (I:E ratio 0.6:1); 98% in [6] (I:E ratio 1:1); 98% in [6] (I:E ratio 1.5:1); 98% and 99.000% in data set [6] (I:E ratio 2:1). In the data set on factor Xa [8], the anti-Xa activity entry was “approximately 150 units/mg”. The “Inhibition of elastase induced injury in vivo, in words” value in [4] was “potent inhibitors of elastase induced injury in vivo”. Besides, in data set [4], the “PMN in bronchoalveolar lavage fluid” value is 10.83 ×10^6 Cells. Also, the “Protein in bronchoalveolar lavage fluid” value in data set [4] turned out to be 41.06 mg/mL. In [4], the “Total Hemoglobin in bronchoalveolar lavage fluid” value is 0.867 mg. For the same substance, the “Time to Clot Formation” value in the data set on human test serum (setting [9]) is 80 s; in the data set with human test serum (setting [10]) it was > 150 s. Further, the “Anti-factor Xa Activity (test time)” value in the data set with factor Xa [5] (setting [11]) was > 480 s; in the data set with factor Xa [5] (setting [12]) it was > 420 s; in the data set with factor Xa [5] (setting [13]), 42 s; in the data set on factor Xa [5] (setting [14]), 32 s. For the same substance, in [6], the “HLE inhibitory activity, in words” value was “significant inhibition of human leukocyte elastase; also recorded: significantly inhibited human leukocyte elastase (HLE) at I:E ratios of greater than 0.2”.
